Legend:
A/H1N1 (A/PR/8/34) = assay: microbe, parasite or virus in culture; format: cell-based, influenza A virus; details: read-out: Antiviral activity (EC50) A/PR/8/34
A/X-31 (A/H3N2) = format: cell-based, influenza A virus; details: read-out: Antiviral activity (EC50) A/X-31
A/PR/8/34 6c #8 cl3 = assay: microbe, parasite or virus in culture; format: cell-based; details: Influenza A virus, PR/8, pH 5.5, read-out: Antiviral activity (EC50), 6c #8 cl3
A/PR/8/34 4 #8 cl3 = assay: microbe, parasite or virus in culture; format: cell-based; details: Influenza A virus, PR/8, pH 5.7, read-out: Antiviral activity (EC50), 4 #8 cl3
[1] = system: A/Virginia/ATCC3/2009 (2009 pandemic A/H1N1); format: cell-based, influenza A virus; details: read-out: Antiviral activity (EC50) A/2009pan
S31N mutant A/M2 = S31N mutant A/M2 (Influenza A virus, UniProt P0DOF5, S31N); format: biochemical, influenza A/Udorn/72
V27A mutant A/M2 = V27A mutant A/M2 (Influenza A virus, UniProt P0DOF5, V27A); format: biochemical, influenza A/Udorn/72

SMILES | EC50 (A/H1N1 (A/PR/8/34)) | EC50 (A/X-31 (A/H3N2)) | EC50 (A/PR/8/34 6c #8 cl3) | EC50 (A/PR/8/34 4 #8 cl3) | EC50 [1] | Activity against S31N mutant A/M2 (S31N mutant A/M2) | Activity against V27A mutant A/M2 (V27A mutant A/M2)
CC(=O)N[C@H]1[C@H]([C@H](O)[C@H](O)CO)OC(C(=O)O)=C[C@@H]1N=C(N)N [Zanamivir] | 6 ± 1.3 µM | 0.16 ± 0.05 µM |  |  |  |  | 
NC(=O)c1ncn([C@@H]2O[C@H](CO)[C@@H](O)[C@H]2O)n1 [Ribavirin] | 8.7 ± 0.7 µM | 8.8 ± 0.2 µM | 24 ± 3 µM | 26 ± 4 µM | 11 ± 1 µM |  | 
NC12CC3CC(CC(C3)C1)C2 [Amantadine, amantadine] |  | 61 ± 12 µM | > 250 µM | > 250 µM | 137 ± 10 µM |  | 
CC(N)C12CC3CC(CC(C3)C1)C2 (stereo not drawn) [Rimantadine, rimantadine] |  | 7 ± 1.7 µM | > 100 µM | > 100 µM | ≥ 158 µM | inactive | inactive
C1=CC2C3C4C5C=CC4C24CNCC54C13 [Compound 3, 3-azahexacyclo[7.6.0.0^1,5.0^5,12.0^6,10.0^11,15]pentadeca-7,13-diene] |  |  |  |  |  | inactive | inactive
CCC(CC)O[C@@H]1C=C(C(=O)O)C[C@H](N)[C@H]1NC(C)=O [Oseltamivir carboxylate] | 21 ± 9 µM | 0.11 ± 0.05 µM |  |  |  |  | 

— paper PMC7114147 (Antiviral Research, 2013)
